Measurements from patent US11718622B2, “Heterocyclic adenosine receptor antagonists” (Exelixis, Inc., priority 2020, dated 2023).

How the values were obtained:
[1] = target: Adenosine A2B (ADORA2B) receptor (Homo sapiens (Human), UniProt P29275); experiment: ADORA2B Receptor Binding Assay; details: radioligand binding, membrane stock
Outline: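 Radioligand competition binding on human A2B receptor membranes, 1 h at room temperature, then filtration through BSA-presoaked GF/C filters and ³H counting by scintillation. Inhibition expressed as % of high control after background subtraction.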

[2] = target: Adenosine A2a (ADORA2A) receptor (Homo sapiens (Human), UniProt P29274); experiment: ADORA2A Receptor Binding Assay; details: radioligand binding, membrane stock
Adenosine A2a (ADORA2A) receptor, sequence (P29274 whole entry): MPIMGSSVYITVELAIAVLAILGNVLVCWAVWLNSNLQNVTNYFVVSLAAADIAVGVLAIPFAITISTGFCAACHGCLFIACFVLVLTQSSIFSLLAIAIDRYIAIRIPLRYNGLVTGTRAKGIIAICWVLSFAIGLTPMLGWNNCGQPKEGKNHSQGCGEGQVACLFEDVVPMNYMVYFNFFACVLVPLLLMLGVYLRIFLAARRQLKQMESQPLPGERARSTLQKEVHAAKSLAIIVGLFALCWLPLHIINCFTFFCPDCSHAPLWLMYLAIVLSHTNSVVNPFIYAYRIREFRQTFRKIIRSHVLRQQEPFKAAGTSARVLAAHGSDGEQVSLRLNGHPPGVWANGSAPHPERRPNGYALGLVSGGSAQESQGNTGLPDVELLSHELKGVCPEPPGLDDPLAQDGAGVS
Outline: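 Test compounds incubated with A2a receptor membranes and a ³H-labelled radioligand for 2 hours at room temperature, then filtered through PEI-presoaked GF/C plates and washed. Filter-bound ³H counted by scintillation; % inhibition calculated from background-subtracted signal relative to high control.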

Adenosine A2B (ADORA2B) receptor, sequence (P29275 whole entry): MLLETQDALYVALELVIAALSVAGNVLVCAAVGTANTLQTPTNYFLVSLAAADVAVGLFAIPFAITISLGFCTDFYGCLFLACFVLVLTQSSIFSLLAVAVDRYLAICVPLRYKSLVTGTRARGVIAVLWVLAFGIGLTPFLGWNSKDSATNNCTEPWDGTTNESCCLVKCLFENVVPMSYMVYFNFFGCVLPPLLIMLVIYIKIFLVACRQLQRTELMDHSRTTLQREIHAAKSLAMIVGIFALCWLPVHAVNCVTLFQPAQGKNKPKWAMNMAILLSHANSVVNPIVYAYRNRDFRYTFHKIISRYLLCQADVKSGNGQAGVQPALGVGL

Row | Structure (SMILES) | IC50 [1] [nM] | IC50 [2] [nM]
1 | Cc1nc2c(Br)c(N)nc(-c3ccccc3)n2n1 [Compound 89, 8-bromo-2-methyl-5-phenyl-[1,2,4]triazolo[1,5-c]pyrimidin-7-amine] | 10 to 100 | 10 to 100
2 | CC(=O)Nc1cc2nc(C)nn2c(-c2ccc(Br)o2)n1 [Compound 90, N-[5-(5-bromofuran-2-yl)-2-methyl-[1,2,4]triazolo[1,5-c]pyrimidin-7-yl]acetamide] | < 10 | < 10
3 | CC(=O)Nc1cc2nc(C3COC3)nn2c(-c2ccco2)n1 [Compound 91, N-[5-(furan-2-yl)-2-(oxetan-3-yl)-[1,2,4]triazolo[1,5-c]pyrimidin-7-yl]acetamide] | 10 to 100 | < 10
4 | O=C(Nc1cc2nc(C3COC3)nn2c(-c2ccco2)n1)C1CC1 [Compound 92, N-[5-(furan-2-yl)-2-(oxetan-3-yl)-[1,2,4]triazolo[1,5-c]pyrimidin-7-yl]cyclopropanecarboxamide] | 10 to 100 | < 10
5 | CC(=O)Nc1cc2nc(C)nn2c(-c2cccc(C(C)=O)c2)n1 [Compound 93, N-[5-(3-acetylphenyl)-2-methyl-[1,2,4]triazolo[1,5-c]pyrimidin-7-yl]acetamide] | > 1000 | > 1000
6 | CC(=O)c1cccc(-c2nc(NC(=O)OC(C)(C)C)cc3nc(C)nn23)c1 [Compound 94, tert-butyl N-[5-(3-acetylphenyl)-2-methyl-[1,2,4]triazolo[1,5-c]pyrimidin-7-yl]carbamate] | > 1000 | > 1000
7 | CC(=O)c1cccc(-c2nc(N)cc3nc(C)nn23)c1 [Compound 95, 1-[3-(7-amino-2-methyl-[1,2,4]triazolo[1,5-c]pyrimidin-5-yl)phenyl]ethanone] | > 1000 | > 1000
8 | CC(=O)c1cccc(-c2nc(NC(=O)C3CC3)cc3nc(C)nn23)c1 [Compound 96, N-[5-(3-acetylphenyl)-2-methyl-[1,2,4]triazolo[1,5-c]pyrimidin-7-yl]cyclopropanecarboxamide] | 100 to 1000 | 100 to 1000
9 | Cc1nc2c3c(nc(-c4ccc(C)o4)n2n1)NC(=O)C3 [Compound 97, 4-methyl-7-(5-methylfuran-2-yl)-3,5,6,8,10-pentazatricyclo[7.3.0.0^2,6]dodeca-1(9),2,4,7-tetraen-11-one] | 10 to 100 | < 10
10 | Cc1ccc(-c2nc3c(c4nc(C(C)C)nn24)CC(=O)N3)o1 [Compound 98, 7-(5-methylfuran-2-yl)-4-propan-2-yl-3,5,6,8,10-pentazatricyclo[7.3.0.0^2,6]dodeca-1(9),2,4,7-tetraen-11-one] | 100 to 1000 | 10 to 100
11 | Cc1nc2cc(NC(=O)C3CC3)nc(-c3ccc(S(C)(=O)=O)cc3)n2n1 [Compound 99, A-[2-methyl-5-(4-methylsulfonylphenyl)-[1,2,4]triazolo[1,5-c]pyrimidin-7-yl]cyclopropanecarboxamide] | > 1000 | > 1000
12 | Cc1nc2cc(NC(=O)OC(C)(C)C)nc(-c3ccc(S(C)(=O)=O)cc3)n2n1 [Compound 100, tert-butyl N-[2-methyl-5-(4-methylsulfonylphenyl)-[1,2,4]triazolo[1,5-c]pyrimidin-7-yl]carbamate] | > 1000 | > 1000
13 | CC(=O)Nc1cc2nc(C)nn2c(-c2ccc(S(C)(=O)=O)cc2)n1 [Compound 101, N-[2-methyl-5-(4-methylsulfonylphenyl)-[1,2,4]triazolo[1,5-c]pyrimidin-7-yl]acetamide] | > 1000 | > 1000
14 | Cc1nc2c3cn[nH]c3nc(-c3ccc(C)o3)n2n1 [Compound 102, 4-methyl-7-(5-methylfuran-2-yl)-3,5,6,8,10,11-hexazatricyclo[7.3.0.0^2,6]dodeca-1(9),2,4,7,11-pentaene] | 10 to 100 | 10 to 100
15 | Cc1nc2cc(NC(=O)N3CCCC3)nc(-c3ccco3)n2n1 [Compound 103, N-[5-(furan-2-yl)-2-methyl-[1,2,4]triazolo[1,5-c]pyrimidin-7-yl]pyrrolidine-1-carboxamide] | 100 to 1000 | 10 to 100
16 | Cc1nc2cc(NC(=O)N3CC[C@@H](O)C3)nc(-c3ccco3)n2n1 [Compound 104, (3R)-N-[5-(furan-2-yl)-2-methyl-[1,2,4]triazolo[1,5-c]pyrimidin-7-yl]-3-hydroxypyrrolidine-1-carboxamide] | > 1000 | 100 to 1000
17 | CC(=O)c1cccc(-c2nc(N)c(Cl)c3nc(C)nn23)c1 [Compound 105, 1-[3-(7-amino-8-chloro-2-methyl-[1,2,4]triazolo[1,5-c]pyrimidin-5-yl)phenyl]ethanone] | 100 to 1000 | 10 to 100
18 | Cc1nc2cc(N)nc(-c3ccc(S(C)(=O)=O)cc3)n2n1 [Compound 106, 2-methyl-5-(4-methylsulfonylphenyl)-[1,2,4]triazolo[1,5-c]pyrimidin-7-amine] | > 1000 | > 1000

Row | Structure (SMILES) | IC50 [1] [nM] | IC50 [2] [nM]
19 | Cc1nc2cc(NC(=O)N3CC[C@H](O)C3)nc(-c3ccco3)n2n1 [Compound 107, (3S)-N-[5-(furan-2-yl)-2-methyl-[1,2,4]triazolo[1,5-c]pyrimidin-7-yl]-3-hydroxypyrrolidine-1-carboxamide] | > 1000 | > 1000
20 | CNC(=O)Nc1cc2nc(C)nn2c(-c2ccco2)n1 [Compound 108, 1-[5-(furan-2-yl)-2-methyl-[1,2,4]triazolo[1,5-c]pyrimidin-7-yl]-3-methylurea] | < 10 | < 10
21 | CC(=O)Nc1cc2nc(C3COC3)nn2c(-c2ccc(C)o2)n1 [Compound 109, N-[5-(5-methylfuran-2-yl)-2-(oxetan-3-yl)-[1,2,4]triazolo[1,5-c]pyrimidin-7-yl]acetamide] | 10 to 100 | < 10
22 | Cc1ccc(-c2nc(NC(=O)C3CC3)cc3nc(C4COC4)nn23)o1 [Compound 110, N-[5-(5-methylfuran-2-yl)-2-(oxetan-3-yl)-[1,2,4]triazolo[1,5-c]pyrimidin-7-yl]cyclopropanecarboxamide] | 10 to 100 | < 10
23 | COc1ccc(-c2nc(NC(=O)C3CC3)cc3nc(C)nn23)cc1 [Compound 111, N-[5-(4-methoxyphenyl)-2-methyl-[1,2,4]triazolo[1,5-c]pyrimidin-7-yl]cyclopropanecarboxamide] | 10 to 100 | 10 to 100
24 | COc1ccc(-c2nc(NC(=O)OC(C)(C)C)cc3nc(C)nn23)cc1 [Compound 112, tert-butyl N-[5-(4-methoxyphenyl)-2-methyl-[1,2,4]triazolo[1,5-c]pyrimidin-7-yl]carbamate] | > 1000 | > 1000
25 | COc1ccc(-c2nc(NC(C)=O)cc3nc(C)nn23)cc1 [Compound 113, N-[5-(4-methoxyphenyl)-2-methyl-[1,2,4]triazolo[1,5-c]pyrimidin-7-yl]acetamide] | 100 to 1000 | 100 to 1000
26 | Cc1nc2cc(NC(=O)C3CC3)nc(-c3ccc(S(N)(=O)=O)cc3)n2n1 [Compound 114, N-[2-methyl-5-(4-sulfamoylphenyl)-[1,2,4]triazolo[1,5-c]pyrimidin-7-yl]cyclopropanecarboxamide] | > 1000 | > 1000
27 | COc1ccc(-c2nc(N)cc3nc(C)nn23)cc1 [Compound 115, 5-(4-methoxyphenyl)-2-methyl-[1,2,4]triazolo[1,5-c]pyrimidin-7-amine] | > 1000 | 100 to 1000
28 | Cc1nc2cc(NC(=O)C3CC3)nc(-c3ccc(S(=O)(=O)N(C)C)cc3)n2n1 [Compound 116, N-[5-[4-(dimethylsulfamoyl)phenyl]-2-methyl-[1,2,4]triazolo[1,5-c]pyrimidin-7-yl]cyclopropanecarboxamide] | > 1000 | > 1000
29 | CC(=O)Nc1cc2nc(C)nn2c(-c2ccc(S(=O)(=O)N(C)C)cc2)n1 [Compound 117, N-[5-[4-(dimethylsulfamoyl)phenyl]-2-methyl-[1,2,4]triazolo[1,5-c]pyrimidin-7-yl]acetamide] | > 1000 | > 1000
30 | Cc1nc2cc(NC(=O)OC(C)(C)C)nc(-c3ccc(S(=O)(=O)N(C)C)cc3)n2n1 [Compound 118, tert-butyl N-[5-[4-(dimethylsulfamoyl)phenyl]-2-methyl-[1,2,4]triazolo[1,5-c]pyrimidin-7-yl]carbamate] | > 1000 | > 1000
31 | Cc1nc2cc(N)nc(-c3ccc(S(=O)(=O)N(C)C)cc3)n2n1 [Compound 119, 4-(7-amino-2-methyl-[1,2,4]triazolo[1,5-c]pyrimidin-5-yl)-N,N-dimethylbenzenesulfonamide] | > 1000 | > 1000
32 | Cc1nc2c(nc(-c3ccc(C)o3)n3nc(C(C)C)nc23)[nH]1 [Compound 120, 2-methyl-5-(5-methylfuran-2-yl)-8-propan-2-yl-3H-[1,2,4]triazolo[5,1-f]purine] | 10 to 100 | < 10
33 | Cc1ccc(-c2nc3[nH]ncc3c3nc(C(C)C)nn23)o1 [Compound 121, 7-(5-methylfuran-2-yl)-4-propan-2-yl-3,5,6,8,10,11-hexazatricyclo[7.3.0.0^2,6]dodeca-1(9),2,4,7,11-pentaene] | 10 to 100 | < 10
34 | CC(=O)Nc1cc2nc(C3CNC3)nn2c(-c2ccco2)n1 [Compound 122, N-[2-(azetidin-3-yl)-5-(furan-2-yl)-[1,2,4]triazolo[1,5-c]pyrimidin-7-yl]acetamide] | > 1000 | 100 to 1000
35 | O=C(Nc1cc2nc(C3CNC3)nn2c(-c2ccco2)n1)C1CC1 [Compound 123, N-[2-(azetidin-3-yl)-5-(furan-2-yl)-[1,2,4]triazolo[1,5-c]pyrimidin-7-yl]cyclopropanecarboxamide] | > 1000 | 10 to 100
